Values quoted from earlier work in publication PMC3303928 (Bioorganic & medicinal chemistry, 2012).

Conditions: animal tests, racemic mixtures (and their corresponding 3R,4R stereoisomers)

blood-brain barrier (BBB) penetration	SMILES
minimal	Cc1cc(N)nc(C[C@H]2CNC[C@H]2OCCNCCc2cccc(F)c2)c1 [Compound 3]
minimal	Cc1cc(N)nc(C[C@H]2CNC[C@H]2NCCNCCc2cccc(F)c2)c1 [Compound 1]
